In patent US20010041745A1, “Methods for increasing levels of acetylcholine” (priority 1999, published 2001):
Where a name gives a salt, the structure may show the parent alone.

Assays:
[1] = tested on: choline acetyltransferase (ChAT); test: ChAT activity in hippocampus and frontal cortex homogenates of ovariectomized (OVX) rats, radio-labelled assay of acetylcholine bio-synthesis; format: in vivo, female Sprague-Dawley rats; conditions: dosed daily s.c. or oral gavage for 10 days; for levels of ChAT, difference from the sham controls: same doses as E1; for levels of ChAT versus the OVX controls: tamoxifen 3 or 10 mg/kg/day, raloxifene hydrochloride 3 mg/kg/day, estradiol benzoate 0.03 or 0.3 mg/kg/day
Protocol: Forty female Sprague-Dawley rats (weight range of 300 to 325 g, six months old) are obtained from Harlan. The animals are either bilaterally ovariectomized (OVX) or exposed to a Sham surgical procedure, and then shipped after about one week. Upon arrival, they are housed in metal hanging cages in groups of 3 or 4 per cage and have ad libitum access to food and water for one week. Room temperature is maintained at 22.20±1.7° C. with a minimum relative humidity of 40%. The photoperiod in the room is 12 hours light and 12 hours dark.
The animals are dosed daily by subcutaneous injection or oral gavage with either tamoxifen, at 3 mg/kg/day or 10 mg/kg/day in a vehicle containing 10% cyclodextrin, raloxifene hydrochloride, at 3 mg/kg/day in a vehicle containing 10% cyclodextrin, estradiol benzoate at 0.03 or 0.3 mg/kg/day, or vehicle control. Animals were treated for 10 days. There are twenty animals per each dosing regimen. At the appropriate time intervals, the animals are sacrificed and their brains dissected. The particular portions of the brains are homogenized and assayed. Homogenates from the hippocampus and frontal cortex were processed and determination of ChAT activity was made by a radio-labelled assay of the bio-synthesis of acetylcholine. This procedure may be found in Schoepp et al., J. Neural Transmiss., 78:183-193, 1989, the teachings of which are incorporated by reference.

[2] = Amelioration of Alzheimer's disease in post-menopausal women after chronic administration; format: in vivo, human; conditions: post-menopausal women with Alzheimer's disease; 20 mg per day, oral, 2-12 months
From the text: Thus, the current invention provides methods for the treatment and prophylaxis of syndromes related to the loss of memory, learning, and cognitive function, often seen in women who are estrogen deprived, especially post-menopausal women. An example of such a syndrome is senile dementia of the Alzheimer's type. Beneficial effects, such as a decrease in memory loss, associated with administration of a compound of this invention become apparent after chronic administration.

[3] = Prophylactic use: cognitive and memory function by standard tests in peri- or post-menopausal women; format: in vivo, human; conditions: 20 mg/day, oral, 1-5 years
Protocol: The methods of the present invention may also be employed in a prophylactic modality. […] Following the establishment of this baseline, the women are administered tamoxifen at 20 mg/day, via the oral route, for a period 1-5 years.

[4] = tested on: ChAT; conditions: rats; literature (Luine et al. 1980, Luine 1985, Singh et al. 1994); cited from earlier work

Q: Which “levels of ChAT, difference from the sham controls” value (“levels of ChAT, difference” for short) [1] does the source give for `C[C@]12CC[C@@H]3c4ccc(OC(=O)c5ccccc5)cc4CC[C@H]3[C@@H]1CC[C@@H]2O` [estradiol benzoate] here?
A: insignificant difference

Q: And the “levels of ChAT versus the OVX controls” value [1]?
A: significantly (p<0.01) increased levels of ChAT

Q: Which “levels of ChAT, difference” value [1] does the source give for `O=C(c1ccc(OCCN2CCCCC2)cc1)c1c(-c2ccc(O)cc2)sc2cc(O)ccc12` [raloxifene hydrochloride] here?
A: insignificant difference

Q: And the “levels of ChAT versus the OVX controls” value [1]?
A: significantly (p<0.01) increased levels of ChAT

Q: For `CC/C(=C(\c1ccccc1)c1ccc(OCCN(C)C)cc1)c1ccccc1` [tamoxifen], which “effect on Alzheimer's disease” value [2] is on record?
A: amelioration of their disease

Q: What about the “levels of ChAT, difference” value [1] of the same compound?
A: insignificant difference

Q: And the “levels of ChAT versus the OVX controls” value [1]?
A: significantly (p<0.05) increased levels of ChAT

Q: And the “cognitive and memory functions relative to matched patients given placebo” value [3]?
A: decrease in loss of these functions

Q: For estrogen, which “level of acetylcholine / ChAT in the hippocampus” value [4] is on record?
A: increases the level of acetylcholine by up-regulating ChAT
